Assay results: US5202315A, “Cephalosporin compounds” (Lucky, Ltd., priority 1989, dated 1993)
≈ marks a conversion by molar mass, not a printed value. Like-named read-outs stand apart in the source and are kept apart here.

Key:
[1] = test system: Staphylococcus aureus ATCC 10537; assay: Antibacterial activity, MIC; assay type: cell-based; conditions: ATCC10537, ATCC 10537, agar two-fold dilution, 37° C., 20 hours, read-out: MIC
Method in brief: (§1)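 The compound is dispersed into Mueller-Hinton agar across a two-fold dilution series. Each strain is applied as 2 μl of a 10^7 CFU/ml suspension and grown 20 hours at 37 °C.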

[2] = test system: Pseudomonas aeruginosa ATCC 25619; assay: Antibacterial activity, MIC; assay type: cell-based; conditions: ATCC25619, ATCC 25619, agar two-fold dilution, 37° C., 20 hours, read-out: MIC
Method in brief: as §1

[3] = test system: Shigella flexneri ATCC 11836; assay: Antibacterial activity, MIC; assay type: cell-based; conditions: ATCC11836, agar two-fold dilution, 37° C., 20 hours
Method in brief: as §1

[4] = test system: Bacillus cereus ATCC 11778; assay: Antibacterial activity, MIC; assay type: cell-based; conditions: ATCC11778, ATCC 11778, agar two-fold dilution, 37° C., 20 hours, read-out: MIC
Method in brief: as §1

[5] = test system: Proteus vulgaris ATCC 6059; assay: Antibacterial activity, MIC; assay type: cell-based; conditions: ATCC6059, ATCC 6059, agar two-fold dilution, 37° C., 20 hours, read-out: MIC
Method in brief: as §1

[6] = test system: Escherichia coli ATCC 10536; assay: Antibacterial activity, MIC; assay type: cell-based; conditions: ATCC10536, agar two-fold dilution, 37° C., 20 hours
Method in brief: as §1

[7] = test system: Providencia rettgeri ATCC 9250; assay: Antibacterial activity, MIC; assay type: cell-based; conditions: ATCC9250, agar two-fold dilution, 37° C., 20 hours
Method in brief: as §1

[8] = test system: Micrococcus luteus ATCC 9341; assay: Antibacterial activity, MIC; assay type: cell-based; conditions: ATCC9341, ATCC 9341, agar two-fold dilution, 37° C., 20 hours, read-out: MIC
Method in brief: as §1

[9] = test system: Proteus mirabilis ATCC 25933; assay: Antibacterial activity, MIC; assay type: cell-based; conditions: ATCC25933, ATCC 25933, agar two-fold dilution, 37° C., 20 hours, read-out: MIC
Method in brief: as §1

[10] = test system: Shigella sonnei ATCC 11060; assay: Antibacterial activity, MIC; assay type: cell-based; conditions: ATCC11060, ATCC 11060, agar two-fold dilution, 37° C., 20 hours, read-out: MIC
Method in brief: as §1

[11] = test system: Bacillus megaterium ATCC 9885; assay: Antibacterial activity, MIC; assay type: cell-based; conditions: Priestia megaterium, ATCC9885; ATCC 9885; agar two-fold dilution, 37° C., 20 hours; read-out: MIC
Method in brief: as §1

[12] = test system: Staphylococcus aureus ATCC 6538p; assay: Antibacterial activity, MIC; assay type: cell-based; conditions: ATCC6538P, ATCC 6538p, agar two-fold dilution, 37° C., 20 hours, read-out: MIC
Method in brief: as §1

[13] = test system: Citrobacter freundii ATCC 8090; assay: Antibacterial activity, MIC; assay type: cell-based; conditions: ATCC8090, ATCC 8090, agar two-fold dilution, 37° C., 20 hours, read-out: MIC
Method in brief: as §1

[14] = test system: Morganella morganii ATCC 8076h; assay: Antibacterial activity, MIC; assay type: cell-based; conditions: ATCC8076H, agar two-fold dilution, 37° C., 20 hours
Method in brief: as §1

[15] = test system: Klebsiella pneumoniae ATCC 10031; assay: Antibacterial activity, MIC; assay type: cell-based; conditions: ATCC10031, ATCC 10031, agar two-fold dilution, 37° C., 20 hours, read-out: MIC
Method in brief: as §1

[16] = test system: Enterobacter aerogenes ATCC 29751; assay: Antibacterial activity, MIC; assay type: cell-based; conditions: Klebsiella aerogenes, ATCC29751; ATCC 29751; agar two-fold dilution, 37° C., 20 hours; read-out: MIC
Method in brief: as §1

[17] = test system: Serratia marcescens ATCC 27117; assay: Antibacterial activity, MIC; assay type: cell-based; conditions: ATCC27117, ATCC 27117, agar two-fold dilution, 37° C., 20 hours, read-out: MIC
Method in brief: as §1

[18] = test system: Salmonella typhimurium ATCC 14028; assay: Antibacterial activity, MIC; assay type: cell-based; conditions: Salmonella enterica; ATCC 14028; agar two-fold dilution, 37° C., 20 hours; read-out: MIC
Method in brief: as §1

[19] = test system: Escherichia coli ATCC 25922; assay: Antibacterial activity, MIC; assay type: cell-based; conditions: ATCC25922, agar two-fold dilution, 37° C., 20 hours
Method in brief: as §1

[20] = test system: Pseudomonas aeruginosa ATCC 27853; assay: Antibacterial activity, MIC; assay type: cell-based; conditions: ATCC27853, ATCC 27853, agar two-fold dilution, 37° C., 20 hours, read-out: MIC
Method in brief: as §1

[21] = test system: Pseudomonas aeruginosa ATCC 10145; assay: Antibacterial activity, MIC; assay type: cell-based; conditions: ATCC10145, ATCC 10145, agar two-fold dilution, 37° C., 20 hours, read-out: MIC
Method in brief: as §1

[22] = test system: Enterobacter cloacae ATCC 27508; assay: Antibacterial activity, MIC; assay type: cell-based; conditions: ATCC27508, ATCC 27508, agar two-fold dilution, 37° C., 20 hours, read-out: MIC
Method in brief: as §1

[23] = test system: Staphylococcus epidermidis ATCC 12228; assay: Antibacterial activity, MIC; assay type: cell-based; conditions: ATCC12228, ATCC 12228, agar two-fold dilution, 37° C., 20 hours, read-out: MIC
Method in brief: as §1

[24] = test system: Acinetobacter calcoaceticus ATCC 15473; assay: Antibacterial activity, MIC; assay type: cell-based; conditions: ATCC15473, ATCC 15473, agar two-fold dilution, 37° C., 20 hours, read-out: MIC
Method in brief: as §1

Klebsiella pneumoniae = assay: Antibacterial activity against clinically isolated strains, MIC; assay type: cell-based; conditions: 10 clinical isolates, broth microdilution test; for MIC90: read-out: MIC 90%
[25] = test system: Staphylococcus aureus methicillin susceptible; assay: as above; assay type: cell-based; conditions: methicillin susceptible, 42 clinical isolates, broth microdilution test; for MIC90: read-out: MIC 90%
[26] = In-vivo absorbency (plasma concentrations & pharmacokinetic parameters); set-up: species or system SD rat (male); conditions: plasma, SD male rat, iv 20 mg/kg; for concentration at 1 h: 60 min; for concentration at 1 h / concentration at 2 h: read-out: Plasma Conc.; for concentration at 2 h: 120 min; for AUC / half-life: two compartment model; for half-life: rat, iv, 20 mg/kg
Source text: The blood samples from the femoral vein of the rats were taken every hour after administration, and analyzed by bio-assay(agar well method).
Tested animal: SD male Rat (220~340 g)

Row | Compound | MIC [1] | MIC [2] | MIC [3] | MIC [4] | MIC [5] | MIC [6] | MIC [7] | MIC [8] | MIC [9] | MIC [10] | MIC [11] | MIC [12] | MIC [13] | MIC [14] | MIC [15] | MIC [16] | MIC [17] | MIC [18] | MIC [19] | MIC [20] | also measured
1 | C[n+]1c(N)cc(N)nc1SCC1=C(C(=O)[O-])N2C(=O)C(NC(=O)/C(=N\OC(C)(C)C(=O)O)c3csc(N)n3)[C@H]2SC1 (stereo partly drawn) [Compound I-1, 7-[(Z)-2-(2-aminothiazol-4-yl)-2-(2-carboxyprop-2-oxyimino)acetamido]-3-(4,6-diamino-1-methylpyrimidinium-2-yl) thiomethyl-3-cephem-4-carboxylate] | 1 µg/mL (≈ 1.6 µM) | 1 µg/mL (≈ 1.6 µM) | 0.031 µg/mL (≈ 0.0497 µM) | 64 µg/mL (≈ 103 µM) | 0.031 µg/mL (≈ 0.0497 µM) | 0.063 µg/mL (≈ 0.101 µM) | ≤ 8 ng/mL | 0.25 µg/mL (≈ 0.401 µM) | 0.031 µg/mL (≈ 0.0497 µM) | 0.031 µg/mL (≈ 0.0497 µM) | 0.25 µg/mL (≈ 0.401 µM) | 2 µg/mL (≈ 3.21 µM) | 0.063 µg/mL (≈ 0.101 µM) | ≤ 8 ng/mL | 0.063 µg/mL (≈ 0.101 µM) | 1 µg/mL (≈ 1.6 µM) | 0.063 µg/mL (≈ 0.101 µM) | 0.13 µg/mL (≈ 0.208 µM) | 0.063 µg/mL (≈ 0.101 µM) | 1 µg/mL (≈ 1.6 µM) | MIC [21]: 2 µg/mL (≈ 3.21 µM); MIC [22]: 0.016 µg/mL (≈ 0.0257 µM); MIC [23]: 1 µg/mL (≈ 1.6 µM); MIC [24]: 2 µg/mL (≈ 3.21 µM); MIC50 (Klebsiella pneumoniae): 0.063 µg/mL (≈ 0.101 µM); MIC90 (Klebsiella pneumoniae): 0.13 µg/mL (≈ 0.208 µM); MIC50 [25]: 2 µg/mL (≈ 3.21 µM); MIC90 [25]: 2 µg/mL (≈ 3.21 µM); concentration at 1 h [26]: 7700 ng/mL; concentration at 2 h [26]: 1800 ng/mL; AUC [26]: 35300 ng·h/mL; half-life ([26]; read-out: T1/2 (α)): 3 min; half-life ([26]; read-out: T1/2 (β)): 26 min
2 | CC[n+]1c(N)cc(N)nc1SCC1=C(C(=O)[O-])N2C(=O)C(NC(=O)/C(=N\OC(C)(C)C(=O)O)c3csc(N)n3)C2SC1 (stereo not drawn) [Compound I-2] | 2 µg/mL (≈ 3.14 µM) | 1 µg/mL (≈ 1.57 µM) | 0.031 µg/mL (≈ 0.0486 µM) | 64 µg/mL (≈ 100 µM) | 0.031 µg/mL (≈ 0.0486 µM) | 0.063 µg/mL (≈ 0.0988 µM) | ≤ 8 ng/mL | 0.25 µg/mL (≈ 0.392 µM) | 0.031 µg/mL (≈ 0.0486 µM) | 0.063 µg/mL (≈ 0.0988 µM) | 0.5 µg/mL (≈ 0.784 µM) | 2 µg/mL (≈ 3.14 µM) | 0.13 µg/mL (≈ 0.204 µM) | ≤ 8 ng/mL | 0.063 µg/mL (≈ 0.0988 µM) | 2 µg/mL (≈ 3.14 µM) | 0.13 µg/mL (≈ 0.204 µM) | 0.25 µg/mL (≈ 0.392 µM) | 0.063 µg/mL (≈ 0.0988 µM) | 1 µg/mL (≈ 1.57 µM) | MIC [21]: 2 µg/mL (≈ 3.14 µM); MIC [22]: 0.031 µg/mL (≈ 0.0486 µM); MIC [23]: 1 µg/mL (≈ 1.57 µM); MIC [24]: 4 µg/mL (≈ 6.27 µM); MIC50 (Klebsiella pneumoniae): 0.13 µg/mL (≈ 0.204 µM); MIC90 (Klebsiella pneumoniae): 0.13 µg/mL (≈ 0.204 µM); MIC50 [25]: 2 µg/mL (≈ 3.14 µM); MIC90 [25]: 2 µg/mL (≈ 3.14 µM); concentration at 1 h [26]: 2600 ng/mL; concentration at 2 h [26]: 400 ng/mL; AUC [26]: 11400 ng·h/mL; half-life ([26]; read-out: T1/2 (α)): 2 min; half-life ([26]; read-out: T1/2 (β)): 23 min
